Legend:
[1] = tested on: C. difficile strain 4013; assay: Hamster CDAD induced by oral C. difficile challenge plus clindamycin; type: in vivo, Syrian hamsters; settings: for animals surviving the study: all doses
Procedure: In a second study, animals were challenged orally with a bacterial suspension of C. difficile and then administered a single s.c. injection of 100 mg/kg clindamycin. Oral treatment with ramoplanin or vancomycin at 25-50-100 mg/kg or metronidazole at 100-200-400 mg/kg started 24 hours after clindamycin administration and lasted for five days. Hamsters were weighed and observed every 24 hours for evidence of diarrhea or moribund conditions, and the cecal contents were analyzed for C. difficile toxin A (ELISA).

[2] = tested on: C. difficile; assay: Hamster model of clindamycin-induced C. difficile-associated colitis; type: in vivo, Syrian hamsters; settings: oral 50 mg/kg/day for 5 days; for survival rate: from 24 hours after clindamycin 100 mg/kg s.c., monitored 20 days
Procedure: To evaluate the in vivo efficacy of ramoplanin in the treatment of C. difficile-associated colitis, ramoplanin was tested in a hamster model of clindamycin (CL)-induced colitis in comparison with both vancomycin and metronidazole. Animals were treated with a single subcutaneous (s.c.) injection of 100 mg/kg clindamycin, and after 24 hours received oral ramoplanin or vancomycin at 50 mg/kg/day for 5 days. Animals were observed daily for the presence or absence of diarrhea. Necropsies were performed on some animals that died during the experiment, and cecal contents were assayed for C. difficile toxin A. Hamsters were monitored for 20 days, and the cumulative mortality during this period was recorded (FIG. 1). […] C. difficile toxin A was always detected in these animals. […] All hamsters that died had gross pathologic evidence of enterocolitis and cecal contents were positive for Toxin A.

[3] = tested on: C. difficile; assay: Recovery of C. difficile spores or vegetative cells from clindamycin-treated animals; type: in vivo, hamster; settings: after single dose of clindamycin and treatment
Procedure: In another study, animals were administered a single dose of clindamycin and then treated with either vancomycin or ramoplanin.

[4] = tested on: C. difficile strain 4013; assay: Hamster CDAD, different durations of treatment; type: in vivo, Syrian hamsters; settings: ramoplanin 50 mg/kg oral daily for 3 days versus vancomycin 50 mg/kg for 5 days
Procedure: Hamsters were inoculated with C. difficile on day 0 and then administered 100 mg/kg clindamycin s.c. on day 1. Hamsters received daily oral doses of 50 mg/kg ramoplanin or vancomycin for 3 or 5 days starting on day 2.

[5] = Single oral dose study in healthy male volunteers: absorption and fecal recovery; type: in vivo, human
Procedure: The absorption, tolerability, and recovery of ramoplanin following single dose oral administration were investigated in male volunteers. Ramoplanin was administered as an aqueous solution at a dose of 100, 200, 500, or 1000 mg to fasting subjects. Serum samples were obtained prior to drug administration of ramoplanin and 0.5, 1, 2, 3, 6, 9, 12, 24, 48, 72, and 96 hours after treatment. Urine samples were collected prior to administration of ramoplanin and over the periods 0-3,3-6, 6-12, 12-24, 24-48, 48-72, and 72-96 hours after dosing. Fecal samples were collected prior to dosing and over the periods 0-16 (Day 1), 16-40 (Day 2), 40-64 (Day 3), 64-88 (Day 4), and 88-96 (Day 5) hours after dosing. A microbiological assay employing Bacillis subtilis ATCC 6633 as the test organism was used to determine ramoplanin concentrations in serum, urine, and feces. The limits of quantitation for this assay were 0.02 μg/mL in serum, 0.012 μg/mL in urine, and 3 μg/g in feces. Tolerability was assessed on the basis of clinical signs and symptoms and the results of blood and urine laboratory tests.

[6] = Multiple oral dose study in healthy male volunteers: absorption and fecal concentrations; type: in vivo, human
Procedure: Healthy male volunteers were administered 200, 400, or 800 mg ramoplanin twice-a-day, for ten consecutive days. The predetermined dose was reconstituted in 5 mL water per vial, mixed with 50 mL of sweetened, aromatized solution, and immediately administered orally to the subjects.
No absorption from the human gastrointestinal tract was observed.

[7] = tested on: Gram-positive bacteria (staphylococci, streptococci, enterococci); assay: Multiple dose study, antibacterial activity on stool microflora: Gram-positive bacteria; type: in vivo, human
Procedure: (§1) The antibacterial activity of ramoplanin on the stool microflora was assessed in a subset of the subjects. Microbial concentrations (i.e., the number of organisms per gram of fecal matter) were determined at the following time points: Day −4 (pre-treatment), Days 4 and 10 (treatment), and Days 7 and 24 (follow-up). Tolerability and absorption were also investigated.

[8] = tested on: Clostridium spp.; assay: Multiple dose study, antibacterial activity on stool microflora: Clostridium spp.; type: in vivo, human
Procedure: as §1

[9] = tested on: Gram-negative bacteria (enteric bacteria and Bacteroides spp.) or yeast; assay: Multiple dose study, antibacterial activity on stool microflora: Gram-negative bacteria and yeast; type: in vivo, human
Procedure: as §1

[10] = In vitro interaction of ramoplanin with human intestinal contents
Source text: The in vitro interaction of ramoplanin with human intestinal contents was studied. […] The binding and the subsequent release of ramoplanin from feces would likely result in long-lasting concentrations in the intestinal tract.

[11] = tested on: VRE; assay: Multiple dose study in asymptomatic carriers of intestinal VRE; type: in vivo, human; settings: for patients remaining VRE free: Day 14 (seven days after cessation)
Procedure: Patients identified as asymptomatic carriers of VRE were administered placebo or one of two dosages (100 mg, 400 mg) of ramoplanin BID (twice daily) for seven days. Patients were assessed by rectal swab on Days 7, 14, and 21 to determine the presence or absence of VRE. On Days 45 and 90, stool samples were analyzed for long-term effects of ramoplanin on the recurrence of, or reinfection with, VRE. All VRE isolates were tested for susceptibility to ramoplanin.

Molecule: Cc1ncc([N+](=O)[O-])n1CCO [metronidazole]
- animals surviving the study ([1]; oral for five days): No animals treated with vancomycin or metronidazole survived the study
- prolonged survival ([1]; oral for five days, ramoplanin or vancomycin 25-50-100 mg/kg, metronidazole 100-200-400 mg/kg): 9 days

Molecule: CN[C@H](CC(C)C)C(=O)N[C@H]1C(=O)N[C@@H](CC(N)=O)C(=O)N[C@H]2C(=O)N[C@H]3C(=O)N[C@H](C(=O)N[C@H](C(=O)O)c4cc(O)cc(O)c4-c4cc3ccc4O)[C@H](O)c3ccc(c(Cl)c3)Oc3cc2cc(c3O[C@@H]2O[C@H](CO)[C@@H](O)[C@H](O)[C@H]2O[C@H]2C[C@](C)(N)[C@H](O)[C@H](C)O2)Oc2ccc(cc2Cl)[C@H]1O [vancomycin, reference compound]
- prolonging survival and protecting animals from death [2]: highly effective
- survival rate [2]: 20%
- animals surviving the study ([1]; oral for five days): No animals treated with vancomycin or metronidazole survived the study
- recovery of C. difficile spores or vegetative cells [3]: C. difficile spores were recovered from some of the animals

Molecule: ramoplanin
- prolonging survival and protecting animals from death [2]: highly effective
- survival rate [2]: 80%
- survival at the end of observation period ([1]; 100 mg/kg oral for five days): 20%
- time of death compared to vancomycin-treated animals ([1]; oral for five days): delayed compared to that of vancomycin-treated animals
- efficacy by duration of treatment [4]: more effective than vancomycin administration for 5 days
- recovery of C. difficile spores or vegetative cells [3]: No C. difficile spores or vegetative cells were recovered
- mean cumulative recovery in feces, of the administered dose ([5]; 100 mg single oral dose): 67.7%
- mean maximum concentration in feces ([5]; 100 mg single oral dose): 214 µg/g
- range of cumulative recovery in feces ([5]; 100 mg single oral dose): 55.7-84%
- range of maximum concentrations in feces ([5]; 100 mg single oral dose): 148 to 278 µg/g
- mean cumulative recovery in feces, of the administered dose ([5]; 200 mg single oral dose): 48.5%
- mean maximum concentration in feces ([5]; 200 mg single oral dose): 287 µg/g
- range of cumulative recovery in feces ([5]; 200 mg single oral dose): 39.3-56.5%
- range of maximum concentrations in feces ([5]; 200 mg single oral dose): 164 to 454 µg/g
- mean cumulative recovery in feces, of the administered dose ([5]; 500 mg single oral dose): 52.8%
- mean maximum concentration in feces ([5]; 500 mg single oral dose): 1655 µg/g
- range of cumulative recovery in feces ([5]; 500 mg single oral dose): 41.3-79.6%
- range of maximum concentrations in feces ([5]; 500 mg single oral dose): 737 to 3316 µg/g
- mean cumulative recovery in feces, of the administered dose ([5]; 1000 mg single oral dose): 46.4%
- mean maximum concentration in feces ([5]; 1000 mg single oral dose): 1835 µg/g
- range of cumulative recovery in feces ([5]; 1000 mg single oral dose): 39.9-58.4%
- range of maximum concentrations in feces ([5]; 1000 mg single oral dose): 1336 to 3154 µg/g
- subjects with ramoplanin still detectable in feces ([5]; fourth day of study, single oral dose): 17 of 24
- time of maximum concentration and maximum percentage recovery in feces ([5]; single oral dose, not dose dependent): Day 2
- detection in serum/plasma or urine ([5]; single oral doses up to 1000 mg and multiple oral doses 200, 400 or 800 mg BID for 10 days, bioassay and HPLC): not detected
- absorption from the human gastrointestinal tract ([6]; 200, 400 or 800 mg twice-a-day for ten days): No absorption
- urine levels ([6]; Day 1 and 5 and pooled urine up to 72-96 after the last dose): No levels were found in urine
- average fecal concentration ([6]; Day 3, 200 mg twice-a-day): 827 µg/g
- average fecal concentration ([6]; Day 3, 400 mg twice-a-day): 1742 µg/g
- average fecal concentration ([6]; Day 3, 800 mg twice-a-day): 1901 µg/g
- average fecal concentration ([6]; Day 10, 200 mg twice-a-day): 949 µg/g
- average fecal concentration ([6]; Day 10, 400 mg twice-a-day): 1417 µg/g
- average fecal concentration ([6]; Day 10, 800 mg twice-a-day): 2647 µg/g
- serum levels ([6]; Days 1, 5 and 10, hour 0.5, 1, 2, 3, 6, 9 and 12 after the morning dose): no serum levels of ramoplanin were detected
- fecal concentrations post-treatment ([6]; after ten days of twice-a-day dosing): remained detectable in some subjects four days post-treatment
- cumulative recovery in feces, of the administered dose ([6]; up to Day 4 post-treatment): 25%
- Gram-positive colony counts in feces ([7]; all doses (200, 400 or 800 mg BID), during the 10-day regimen): undetectable levels
- concentrations of staphylococci, streptococci and enterococci in stool ([7]; by Day 10, all subjects): below the level of detection
- effect on Gram-positive bacteria of the stool ([7]; first measurement on Day 4): marked effect
- clostridial load in the two subjects carrying ramoplanin- and vancomycin-resistant Clostridium spp. (C. rectum and C. bejerinckii) ([8]; multiple dose, ten days): no variation in the clostridial load
- subjects with Clostridium spp. concentration reduced below detectable levels ([8]; multiple dose, ten days): 10 of 12
- ramoplanin- or vancomycin-resistant C. difficile strains in stool ([8]; pre- or post-treatment): No ramoplanin- or vancomycin-resistant strain of C. difficile was detected
- activity against Gram-negative flora in feces ([9]; 200, 400 or 800 mg BID for 10 days): not effective
- effect on Gram-negative bacteria (enteric bacteria and Bacteroides spp.) or yeast of the stool ([9]; multiple dose, ten days): no effect
- binding to solid components of feces [10]: bind reversibly to solid components of feces
- microbiological activity in feces [10]: microbiologically active in feces
- suppression of intestinal VRE (primary efficacy variable) ([11]; 100 mg or 400 mg BID for seven days): effectively suppressed intestinal VRE
- patients with no detectable VRE ([11]; Day 7, 100 mg BID for seven days, 17 of 21 patients): 81.0%
- patients with no detectable VRE ([11]; Day 7, 400 mg BID for seven days, 18 of 20 patients): 90.0%
- patients remaining VRE free ([11]; 100 mg BID, 6 of 21 patients): 28.6%
- patients remaining VRE free ([11]; 400 mg BID, 7 of 17 patients): 41.2%
- number of VRE-free patients ([11]; Day 21): comparable among all treatment groups
